This experiment in a line: Inhibition of ROCK1 in human THP1 cells assessed as inhibition of MCP1-induced cell migration.
By IC50 is commonly meant the concentration at which inhibition is half-maximal. Turning to `c1ccc2c(c1)CC(Oc1nc(Nc3ccncc3)nc(N3CCNCC3)n1)C2` [4-(2,3-dihydro-1H-inden-2-yloxy)-6-(piperazin-1-yl)-N-(pyridin-4-yl)-1,3,5-triazin-2-amine], the IC50 worked out at 57 nM. For `C[C@@H]1CN(c2nc(Nc3ccncc3)nc(NC3Cc4ccccc4C3)n2)CCN1` [(R)-N2-(2,3-dihydro-1H-inden-2-yl)-6-(3-methylpiperazin-1-yl)-N4-(pyridin-4-yl)-1,3,5-triazine-2,4-diamine] the value was 26 nM; for `c1ccc2c(c1)CC(Nc1cc(Nc3ccncc3)nc(N3CCNCC3)n1)C2` [N4-(2,3-dihydro-1H-inden-2-yl)-2-(piperazin-1-yl)-N6-(pyridin-4-yl)pyrimidine-4,6-diamine], 12 nM.

Turning to `c1ccc2c(c1)CC(Nc1cc(N3CCNCC3)nc(Nc3ccncc3)n1)C2` [N4-(2,3-dihydro-1H-inden-2-yl)-6-(piperazin-1-yl)-N2-(pyridin-4-yl)pyrimidine-2,4-diamine], the concentration for half-maximal inhibition (IC50) was 154 nM.

The record behind these values is BindingDB's records for doi:10.1016/j.bmcl.2009.09.046 (Ligand Pharmaceuticals, 2009).
